Source: article PMC12713628 (2025)
Where two headings read alike, the source gives them in different places. Values belong to the compound of their own block, whether it stands above or below them.

Tests used:
Assay in all cases: ITC
[1] = tested on: AI-TES-R3R5HD-T (DNA, aptamer) GGACGACGGGGATTTGGGGTTTTCTATGTTTTTCGTCCTTTTTTTGCTGCGTTCTCCATTCTGG
[2] = tested on: CS-R5MP (DNA, aptamer) GGCTCTCGGGACGACGGGGATTTTTGGTGCACTATGTGGTTCGTTCGGGGTGGGCTGCGTTCTCCATTCTGG; conditions: one-site fit
[3] = tested on: CS-R7MP-T (DNA, aptamer) CGGGACGACGGGGATTTTATTTGCACTATGTGGCTCGTTCGGGGTGTGCTGCGTTCTCCATTCTGG; conditions: one-site fit
[4] = one-site fit, aptamer identified from Figure 3e legend

KD [1, 4]: 9.38 µM
Structure (SMILES): CC(=O)[C@H]1CC[C@H]2[C@@H]3CCC4=CC(=O)CC[C@]4(C)[C@H]3CC[C@]12C

KD [2]: ~ 2.41 μM | KD [3]: 5.1 µM
Structure (SMILES): C[C@]12CCC(=O)C=C1CC[C@@H]1[C@@H]2[C@@H](O)C[C@@]2(C)[C@H]1CC[C@]2(O)C(=O)CO

KD [1, 4]: 6.22 µM
Structure (SMILES): C[C@]12CC[C@@H]3c4ccc(O)cc4CC[C@H]3[C@@H]1CC[C@@H]2O

KD [1]: 0.313 µM
Structure (SMILES): C[C@]12CC[C@H]3[C@@H](CCC4=CC(=O)CC[C@@]43C)[C@@H]1CC[C@@H]2O
